Here are results for 7 compounds from patent publication US9885088B2, “Rapid phenotypic diagnosis of pathogens and drug resistance using transcriptional expression signatures” (priority 2010, dated 2018).

≈ marks a conversion by molar mass, not a printed value. Like-named read-outs stand apart in the source and are kept apart here.

Test [1] concerns E. coli. In words: microbe, parasite or virus in culture. The class given is cell-based.
For test [2], the system named is E. coli. The class given is cell-based. Conditions: wild-type E. coli K-12, 10-30 minute exposure.
The subject of test [3] is M. tuberculosis. In words: microbe, parasite or virus in culture. The class given is cell-based.
Test [4] has as its system M. tuberculosis. The format is cell-based.
Test [5] deals with M. tuberculosis. Conditions: M. tuberculosis after drug exposure, cited from earlier work; for Magnitude of induction/repression in prior microarray-based assays, RV1570 bioD: gene RV1570 (bioD); for Magnitude of induction/repression in prior microarray-based assays, RV1570 bioD / Magnitude of induction/repression in prior microarray-based assays, RV1606 hisI / Magnitude of induction/repression in prior microarray-based assays, Rv0984 moaB2 / Magnitude of induction/repression in prior microarray-based assays, Rv2296 haloalkane / Magnitude of induction/repression in prior microarray-based assays, Rv2364c era: purpose RIF; for Magnitude of induction/repression in prior microarray-based assays, RV1606 hisI: gene RV1606 (hisI); for Magnitude of induction/repression in prior microarray-based assays, RV3675: gene RV3675 (Rv3675); for Magnitude of induction/repression in prior microarray-based assays, RV3675 / Magnitude of induction/repression in prior microarray-based assays, Rv2245 kasA / Magnitude of induction/repression in prior microarray-based assays, Rv2247 accD6 / Magnitude of induction/repression in prior microarray-based assays, Rv2846c efpA / Magnitude of induction/repression in prior microarray-based assays, Rv3801c fadD32: purpose INH; for Magnitude of induction/repression in prior microarray-based assays, Rv0055 rpsR: gene Rv0055 (rpsR); for Magnitude of induction/repression in prior microarray-based assays, Rv0055 rpsR / Magnitude of induction/repression in prior microarray-based assays, Rv1317c alkA / Magnitude of induction/repression in prior microarray-based assays, Rv2737c recA / Magnitude of induction/repression in prior microarray-based assays, Rv2790c ltp1 / Magnitude of induction/repression in prior microarray-based assays, Rv3296 lhr: purpose FQ; for Magnitude of induction/repression in prior microarray-based assays, Rv0667 rpoB: gene Rv0667 (rpoB); for Magnitude of induction/repression in prior microarray-based assays, Rv0667 rpoB / Magnitude of induction/repression in prior microarray-based assays, Rv1980c mpt64 / Magnitude of induction/repression in prior microarray-based assays, Rv2703 sigA / Magnitude of induction/repression in prior microarray-based assays, Rv3583c: purpose control; for Magnitude of induction/repression in prior microarray-based assays, Rv0813c CHP: gene Rv0813c (CHP); for Magnitude of induction/repression in prior microarray-based assays, Rv0813c CHP / Magnitude of induction/repression in prior microarray-based assays, Rv1511 gmdA / Magnitude of induction/repression in prior microarray-based assays, Rv1608c bcpB / Magnitude of induction/repression in prior microarray-based assays, Rv1832 gcvB / Magnitude of induction/repression in prior microarray-based assays, Rv3417c groEL: purpose SM; for Magnitude of induction/repression in prior microarray-based assays, Rv0984 moaB2: gene Rv0984 (moaB2); for Magnitude of induction/repression in prior microarray-based assays, Rv1317c alkA: gene Rv1317c (alkA); for Magnitude of induction/repression in prior microarray-based assays, Rv1511 gmdA: gene Rv1511 (gmdA); for Magnitude of induction/repression in prior microarray-based assays, Rv1608c bcpB: gene Rv1608c (bcpB); for Magnitude of induction/repression in prior microarray-based assays, Rv1832 gcvB: gene Rv1832 (gcvB); for Magnitude of induction/repression in prior microarray-based assays, Rv1980c mpt64: gene Rv1980c (mpt64); for Magnitude of induction/repression in prior microarray-based assays, Rv2245 kasA: gene Rv2245 (kasA); for Magnitude of induction/repression in prior microarray-based assays, Rv2247 accD6: gene Rv2247 (accD6); for Magnitude of induction/repression in prior microarray-based assays, Rv2296 haloalkane: gene Rv2296 (haloalkane); for Magnitude of induction/repression in prior microarray-based assays, Rv2364c era: gene Rv2364c (era); for Magnitude of induction/repression in prior microarray-based assays, Rv2703 sigA: gene Rv2703 (sigA); for Magnitude of induction/repression in prior microarray-based assays, Rv2737c recA: gene Rv2737c (recA); for Magnitude of induction/repression in prior microarray-based assays, Rv2790c ltp1: gene Rv2790c (ltp1); for Magnitude of induction/repression in prior microarray-based assays, Rv2846c efpA: gene Rv2846c (efpA); for Magnitude of induction/repression in prior microarray-based assays, Rv3296 lhr: gene Rv3296 (lhr); for Magnitude of induction/repression in prior microarray-based assays, Rv3417c groEL: gene Rv3417c (groEL); for Magnitude of induction/repression in prior microarray-based assays, Rv3583c: gene Rv3583c; for Magnitude of induction/repression in prior microarray-based assays, Rv3801c fadD32: gene Rv3801c (fadD32).

Setting [6] is: E. coli clinical isolate CIEC9955.
[7] abbreviates: Mycobacterium tuberculosis, H37RV.

In the case of `CC1(C)S[C@@H]2[C@H](NC(=O)[C@H](N)c3ccccc3)C(=O)N2[C@H]1C(=O)O` [Ampicillin], the “Sensitive (S) or Resistant (R)” value with E. coli [1] (setting [6]) is given as “R”; in the test with E. coli [1] (E. coli strain K12) it was “S”. The MIC is above 250 µg/mL with E. coli [1] (Escherichia coli, E. coli clinical isolate CIEC0838, read-out: MIC); above 250 µg/mL with E. coli [1] (Escherichia coli, E. coli clinical isolate CIEC2219, read-out: MIC); above 250 µg/mL in the test on E. coli [1] (Escherichia coli, E. coli clinical isolate CIEC9181, read-out: MIC); above 250 µg/mL in the test on E. coli [1] (Escherichia coli, E. coli clinical isolate CIEC9955, read-out: MIC); 8 µg/mL (≈ 22.9 µM) with E. coli [1] (Escherichia coli, E. coli strain DH5α, read-out: MIC); 4 µg/mL (≈ 11.4 µM) in the test with E. coli [1] (Escherichia coli, E. coli strain J53, read-out: MIC). For the same compound, in the test on E. coli [1] (Escherichia coli, E. coli strain K12, read-out: MIC), the MIC came out at 4 µg/mL (≈ 11.4 µM). Also, in the test on E. coli [2], the “changes in transcript levels (drug-susceptible expression signature)” value is reported as “expected changes in transcript levels”.

`O=C(O)c1cn(C2CC2)c2cc(N3CCNCC3)c(F)cc2c1=O` [Ciprofloxacin] returned an MIC with M. tuberculosis [3] of 16 µg/mL (≈ 48.3 µM).

Take `NNC(=O)c1ccncc1` [Isoniazid]: the MIC with M. tuberculosis [3] (Mycobacterium tuberculosis, BAA812) was 0.4 µg/mL (≈ 2.92 µM); in the test with M. tuberculosis [3] (setting [7]), 0.05 µg/mL (≈ 0.365 µM). The “genes with drug-dependent induction” value in the test with M. tuberculosis [4] is “kasA, fadD32, accD6, efpA, and Rv3675.1”.

In the case of `CO[C@H]1/C=C/O[C@@]2(C)Oc3c(C)c(O)c4c(O)c(c(/C=N/N5CCN(C)CC5)c(O)c4c3C2=O)NC(=O)/C(C)=C\C=C\[C@H](C)[C@H](O)[C@@H](C)[C@@H](O)[C@@H](C)[C@H](OC(C)=O)[C@@H]1C` [RIF], in the test with M. tuberculosis [5], the “Magnitude of induction/repression in prior microarray-based assays, RV1570 bioD” value is on record as 1.2; the “Magnitude of induction/repression in prior microarray-based assays, RV1606 hisI” value was 1.5; the “Magnitude of induction/repression in prior microarray-based assays, RV3675” value is listed as 0.0; the “Magnitude of induction/repression in prior microarray-based assays, Rv0055 rpsR” value is −0.9. Moreover, in the test on M. tuberculosis [5], the “Magnitude of induction/repression in prior microarray-based assays, Rv0667 rpoB” value was 0.1; the “Magnitude of induction/repression in prior microarray-based assays, Rv0813c CHP” value is 0.3; the “Magnitude of induction/repression in prior microarray-based assays, Rv0984 moaB2” value is given as 1.7; the “Magnitude of induction/repression in prior microarray-based assays, Rv1317c alkA” value is 0.5. Further, in the test with M. tuberculosis [5], the “Magnitude of induction/repression in prior microarray-based assays, Rv1511 gmdA” value was −0.3; the “Magnitude of induction/repression in prior microarray-based assays, Rv1608c bcpB” value is listed as 0.3; the “Magnitude of induction/repression in prior microarray-based assays, Rv1832 gcvB” value was −0.4; the “Magnitude of induction/repression in prior microarray-based assays, Rv1980c mpt64” value is recorded as −1.2. In addition, in the test with M. tuberculosis [5], the “Magnitude of induction/repression in prior microarray-based assays, Rv2245 kasA” value is listed as −1.0; the “Magnitude of induction/repression in prior microarray-based assays, Rv2247 accD6” value is −0.8; the “Magnitude of induction/repression in prior microarray-based assays, Rv2296 haloalkane” value is 1.2; the “Magnitude of induction/repression in prior microarray-based assays, Rv2364c era” value is on record as 1.4. Moreover, in the test on M. tuberculosis [5], the “Magnitude of induction/repression in prior microarray-based assays, Rv2703 sigA” value is recorded as −1.4; the “Magnitude of induction/repression in prior microarray-based assays, Rv2737c recA” value is −0.6; the “Magnitude of induction/repression in prior microarray-based assays, Rv2790c ltp1” value is on record as −0.7; the “Magnitude of induction/repression in prior microarray-based assays, Rv2846c efpA” value is on record as −0.9. In addition, in the test with M. tuberculosis [5], the “Magnitude of induction/repression in prior microarray-based assays, Rv3296 lhr” value is recorded as 0.2; the “Magnitude of induction/repression in prior microarray-based assays, Rv3417c groEL” value is given as −0.9; the “Magnitude of induction/repression in prior microarray-based assays, Rv3583c” value is reported as −1.8; the “Magnitude of induction/repression in prior microarray-based assays, Rv3801c fadD32” value is recorded as −0.6.

With `CO[C@H]1/C=C/O[C@@]2(C)Oc3c(C)c(O)c4c(O)c(c(/C=N/N5CCN(C)CC5)c(O)c4c3C2=O)NC(=O)/C(C)=C\C=C\[C@H](C)[C@H](O)[C@@H](C)[C@@H](O)[C@@H](C)[C@H](OC(C)=O)[C@@H]1C` [Rifampin], the “genes with drug-dependent induction” value in the test with M. tuberculosis [4] is “bioD, hisI, era, and Rv2296”.

In the test with M. tuberculosis [3] (setting [7]), `[H]/N=C(/N)N[C@H]1[C@H](O)[C@@H](O)[C@H](O[C@@H]2O[C@@H](C)[C@](O)(C=O)[C@H]2O[C@@H]2O[C@@H](CO)[C@H](O)[C@@H](O)[C@@H]2NC)[C@@H](N/C(N)=N\[H])[C@@H]1O` [Streptomycin] yielded an MIC of 1 µg/mL (≈ 1.72 µM). For the same compound, in the test on M. tuberculosis [4], the “genes with drug-dependent induction” value is “CHP, bcpB, gcvB, and groEL”. For the same compound, in the test on M. tuberculosis [5], the “Magnitude of induction/repression in prior microarray-based assays, RV1570 bioD” value was −0.3; the “Magnitude of induction/repression in prior microarray-based assays, RV1606 hisI” value is −0.4; the “Magnitude of induction/repression in prior microarray-based assays, RV3675” value was 0.0; the “Magnitude of induction/repression in prior microarray-based assays, Rv0055 rpsR” value is on record as 1.7. In the test with M. tuberculosis [5], the “Magnitude of induction/repression in prior microarray-based assays, Rv0667 rpoB” value is listed as 1.4; the “Magnitude of induction/repression in prior microarray-based assays, Rv0813c CHP” value was 3.8; the “Magnitude of induction/repression in prior microarray-based assays, Rv0984 moaB2” value is −1.1; the “Magnitude of induction/repression in prior microarray-based assays, Rv1317c alkA” value is recorded as 0.4. In addition, in the test with M. tuberculosis [5], the “Magnitude of induction/repression in prior microarray-based assays, Rv1511 gmdA” value is given as 1.6; the “Magnitude of induction/repression in prior microarray-based assays, Rv1608c bcpB” value is 2.2; the “Magnitude of induction/repression in prior microarray-based assays, Rv1832 gcvB” value is recorded as 1.3; the “Magnitude of induction/repression in prior microarray-based assays, Rv1980c mpt64” value is given as 0.4. In the test on M. tuberculosis [5], the “Magnitude of induction/repression in prior microarray-based assays, Rv2245 kasA” value was −1.9; the “Magnitude of induction/repression in prior microarray-based assays, Rv2247 accD6” value is −0.8; the “Magnitude of induction/repression in prior microarray-based assays, Rv2296 haloalkane” value is reported as 0.1; the “Magnitude of induction/repression in prior microarray-based assays, Rv2364c era” value is −0.6. In the test on M. tuberculosis [5], the “Magnitude of induction/repression in prior microarray-based assays, Rv2703 sigA” value is given as 0.4; the “Magnitude of induction/repression in prior microarray-based assays, Rv2737c recA” value was −0.1; the “Magnitude of induction/repression in prior microarray-based assays, Rv2790c ltp1” value is reported as −1.1; the “Magnitude of induction/repression in prior microarray-based assays, Rv2846c efpA” value is on record as −0.7. In addition, in the test on M. tuberculosis [5], the “Magnitude of induction/repression in prior microarray-based assays, Rv3296 lhr” value is on record as 0.1; the “Magnitude of induction/repression in prior microarray-based assays, Rv3417c groEL” value was 1.6; the “Magnitude of induction/repression in prior microarray-based assays, Rv3583c” value was 1.0; the “Magnitude of induction/repression in prior microarray-based assays, Rv3801c fadD32” value is reported as 0.8.

As for Gentamicin, in the test on E. coli [1], the “Sensitive (S) or Resistant (R)” value is “S and R”. The MIC in the test on E. coli [1] (E. coli clinical isolate CIEC1676) is 8 µg/mL; with E. coli [1] (E. coli clinical isolate CIEC1801), 8 µg/mL; in the test with E. coli [1] (E. coli clinical isolate CIEC2219) it was 125 µg/mL; against E. coli [1] (E. coli clinical isolate CIEC4940) it was above 250 µg/mL; in the test with E. coli [1] (E. coli clinical isolate CIEC9181) it was above 250 µg/mL; in the test with E. coli [1] (setting [6]), 16 µg/mL. In the test on E. coli [1] (E. coli strain K12), this compound returned an MIC of 8 µg/mL. Moreover, the “changes in transcript levels (drug-susceptible expression signature)” value in the test with E. coli [2] is listed as “expected changes in transcript levels”.
